Reference: patent US9869616B2, “Hydrogel encapsulated cell patterning and transferring method and cell-based biosensor using the same” (UNIST ACADEMY-INDUSTRY RESEARCH CORPORATION, priority 2011, dated 2018)

Tests used:
[1] = system: strain DH10B with plasmid pTrc99A-gfp; experiment: Extracellular induction of hydrogel-encapsulated cells with pTrc99A-gfp (GFP expression) by the HPT method; assay type: cell-based, Escherichia coli; details: 1 mM IPTG in agarose substrate; average of 10 hydrogel microparticles; GFP produced until 8 hours
Protocol: Competent cells of the MG1655 and DH10B were transformed with synthetically engineered genetic circuits. Some plasmids were transferred from the Registry of Standard Biological Parts, and the others were constructed in the experiment with different antibiotic resistance marker genes. For the growth of these strains, each Escherichia coli culture was grown overnight on M 9 agar solid medium plates with appropriate antibiotics at 35° C. A single colony was used to inoculate 5 mL M9 media with 1% glucose, 1% tryptone, and either 100 μg/mL ampicillin or 30 μg/mL chloramphenicol. Thereafter, the cultures were then grown overnight (16 hours) with vigorous aeration (200 rpm in a rotary shaker), and OD600=1.5-2 cells (1-2 mL) were centrifuged at 5000 rpm for 5 min. The obtained pellet was resuspended with fresh M9 media to give bacterial suspensions with desired cell densities. […]
The images of cell patterns were taken using a stereomicroscope (SZX16, Olympus, Japan) equipped with a CCD camera (DP72, Olympus, Japan) and a fluorescent light source (Xcite-200, ExFo Photonics solutions Inc., Mississauga, Canada) operated by the DP2-BSW software (Olympus, Japan). […] All image processing and quantification of fluorescent intensities were performed using Image J. (NIH, USA), and then results were plotted using Origin 7.1 (OriginLab, Northampton, Mass., USA). […]

[2] = system: araBAD promoter (PBAD) of pZBRG; experiment: Induction of RFP from the genetic circuit pZBRG (araBAD promoter) in hydrogel-encapsulated cells; assay type: cell-based, Escherichia coli

| Structure (SMILES) | gene expression level (average GFP fluorescent intensity) [1] [AU] | RFP expression of patterned cells ([2]; 400 mM arabinose in agarose substrate, in 8 hours) | threshold concentration (inducer gradient) ([2]; RFP gradient reaches saturated values in about 10 hours) | cross-talk on simultaneous induction (RFP) ([2]; both tetracycline (1 μM) and arabinose (400 μM)) | fluorescent signals detected, separate induction ([2]; only arabinose (400 μM) in agarose substrate) |
| --- | --- | --- | --- | --- | --- |
| CC(C)S[C@@H]1O[C@H](CO)[C@H](O)[C@H](O)[C@H]1O [IPTG, isopropyl-beta-D-thiogalactopyranoside] | 40 |  |  |  |  |
| O=C[C@@H](O)[C@H](O)[C@H](O)CO [arabinose] |  | activated to express red fluorescent protein (RFP) | relatively high | no significant cross-talk was observed | only RFP signals were detected |
